Source: paper PMC2801581 (Journal of medicinal chemistry, 2009)
Where two headings read alike, the source gives them in different places.

Tests used:
HePTP = molecular target: T1, HePTP (Homo sapiens, UniProt P35236); assay: HePTP counterscreen; type: biochemical; conditions: read-out: IC50 HePTP (DiFMUP)
T1 sequence (P35236 65-360): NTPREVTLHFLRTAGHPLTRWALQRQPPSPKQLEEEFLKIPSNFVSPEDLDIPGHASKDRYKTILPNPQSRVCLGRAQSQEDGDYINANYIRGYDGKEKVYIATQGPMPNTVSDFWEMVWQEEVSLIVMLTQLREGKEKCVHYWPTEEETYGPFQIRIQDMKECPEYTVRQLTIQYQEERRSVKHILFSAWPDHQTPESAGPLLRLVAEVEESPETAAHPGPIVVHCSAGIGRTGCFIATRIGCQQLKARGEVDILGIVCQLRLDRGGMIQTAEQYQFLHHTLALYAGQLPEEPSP

CD45 [1] = molecular target: T2, CD45 (Homo sapiens, UniProt P08575); assay: CD45 counterscreen; type: biochemical; conditions: read-out: IC50 CD45 (DiFMUP)
T2 sequence (P08575 653-912 limits assumed): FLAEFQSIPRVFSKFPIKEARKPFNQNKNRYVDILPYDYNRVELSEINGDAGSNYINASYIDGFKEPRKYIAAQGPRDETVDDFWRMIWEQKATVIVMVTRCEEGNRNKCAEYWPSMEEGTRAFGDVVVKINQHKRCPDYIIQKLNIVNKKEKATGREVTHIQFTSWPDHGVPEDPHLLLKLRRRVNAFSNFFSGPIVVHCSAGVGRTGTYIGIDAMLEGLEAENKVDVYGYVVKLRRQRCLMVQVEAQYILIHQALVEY

LYP [2] = molecular target: T3, LYP (Homo sapiens, UniProt Q9Y2R2); assay: LYP inhibition assay with fluorogenic substrates; type: biochemical; conditions: for LYP versus PTP-PEST inhibition in comparative library screen: nominal 5 µM, DiFMUP and peptide 1; for IC50: pH 6.5; for selectivity for LYP over PTP-PEST in dose-response screens: in vitro, Table 1
T3 sequence (Q9Y2R2 2-309): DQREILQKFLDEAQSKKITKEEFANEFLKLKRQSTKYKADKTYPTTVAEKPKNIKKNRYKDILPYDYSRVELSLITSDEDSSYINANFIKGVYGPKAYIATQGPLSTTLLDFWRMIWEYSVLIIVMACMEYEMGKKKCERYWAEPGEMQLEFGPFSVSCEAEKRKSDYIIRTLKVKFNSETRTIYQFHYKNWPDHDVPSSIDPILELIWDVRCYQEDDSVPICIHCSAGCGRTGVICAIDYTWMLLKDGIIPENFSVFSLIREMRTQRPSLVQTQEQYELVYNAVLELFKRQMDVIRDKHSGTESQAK

PTP-PEST = molecular target: T4, PTP-PEST (Homo sapiens, UniProt Q05209); assay: PTP-PEST inhibition assay with fluorogenic substrates; type: biochemical; conditions: pH 6.5
T4 sequence (Q05209 2-323): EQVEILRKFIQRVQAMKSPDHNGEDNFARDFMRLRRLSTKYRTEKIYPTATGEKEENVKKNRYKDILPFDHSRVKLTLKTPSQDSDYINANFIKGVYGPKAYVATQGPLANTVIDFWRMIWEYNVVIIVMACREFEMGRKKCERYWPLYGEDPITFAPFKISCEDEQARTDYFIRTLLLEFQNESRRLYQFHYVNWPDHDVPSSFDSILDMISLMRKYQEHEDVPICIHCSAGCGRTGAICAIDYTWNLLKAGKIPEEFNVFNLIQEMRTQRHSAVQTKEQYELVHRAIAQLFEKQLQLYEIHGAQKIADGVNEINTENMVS

TCPTP = molecular target: T5, TCPTP (Homo sapiens, UniProt P17706); assay: TCPTP inhibition assay with fluorogenic substrates; type: biochemical; conditions: for IC50: pH 7.1
T5 sequence (P17706 5-275 limits assumed): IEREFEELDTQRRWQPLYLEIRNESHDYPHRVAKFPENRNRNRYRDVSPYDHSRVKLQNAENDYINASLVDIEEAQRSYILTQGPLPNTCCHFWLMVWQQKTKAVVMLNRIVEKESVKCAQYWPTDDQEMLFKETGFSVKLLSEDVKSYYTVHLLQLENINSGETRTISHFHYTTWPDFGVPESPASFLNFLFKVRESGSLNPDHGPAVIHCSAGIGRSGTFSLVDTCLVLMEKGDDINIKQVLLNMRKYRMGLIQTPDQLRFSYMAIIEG

PTP1B = molecular target: T6, PTP1B (Homo sapiens, UniProt P18031); assay: PTP1B inhibition assay with fluorogenic substrates; type: biochemical; conditions: for IC50: pH 7.1; for PTP1B inhibition in library screen, peptide 2 versus DiFMUP: nominal 5 µM
T6 sequence (P18031 3-277 limits assumed): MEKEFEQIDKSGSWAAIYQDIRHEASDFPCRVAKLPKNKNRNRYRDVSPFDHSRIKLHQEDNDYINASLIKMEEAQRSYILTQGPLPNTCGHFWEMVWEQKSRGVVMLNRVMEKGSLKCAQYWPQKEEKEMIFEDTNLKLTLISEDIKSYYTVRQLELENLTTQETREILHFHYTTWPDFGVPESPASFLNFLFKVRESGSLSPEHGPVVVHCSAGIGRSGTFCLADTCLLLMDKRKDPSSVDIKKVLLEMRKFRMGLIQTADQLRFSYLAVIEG

CD45 [3] = molecular target: T7, CD45 (Homo sapiens, UniProt P08575); assay: Intracellular CD45 inhibition in JTAg cells, anti-pLck; type: cell-based; conditions: JTAg cells; 50 µM of 17 and 34, 25 µM of 39, 1 h
T7 sequence (P08575 26-1306): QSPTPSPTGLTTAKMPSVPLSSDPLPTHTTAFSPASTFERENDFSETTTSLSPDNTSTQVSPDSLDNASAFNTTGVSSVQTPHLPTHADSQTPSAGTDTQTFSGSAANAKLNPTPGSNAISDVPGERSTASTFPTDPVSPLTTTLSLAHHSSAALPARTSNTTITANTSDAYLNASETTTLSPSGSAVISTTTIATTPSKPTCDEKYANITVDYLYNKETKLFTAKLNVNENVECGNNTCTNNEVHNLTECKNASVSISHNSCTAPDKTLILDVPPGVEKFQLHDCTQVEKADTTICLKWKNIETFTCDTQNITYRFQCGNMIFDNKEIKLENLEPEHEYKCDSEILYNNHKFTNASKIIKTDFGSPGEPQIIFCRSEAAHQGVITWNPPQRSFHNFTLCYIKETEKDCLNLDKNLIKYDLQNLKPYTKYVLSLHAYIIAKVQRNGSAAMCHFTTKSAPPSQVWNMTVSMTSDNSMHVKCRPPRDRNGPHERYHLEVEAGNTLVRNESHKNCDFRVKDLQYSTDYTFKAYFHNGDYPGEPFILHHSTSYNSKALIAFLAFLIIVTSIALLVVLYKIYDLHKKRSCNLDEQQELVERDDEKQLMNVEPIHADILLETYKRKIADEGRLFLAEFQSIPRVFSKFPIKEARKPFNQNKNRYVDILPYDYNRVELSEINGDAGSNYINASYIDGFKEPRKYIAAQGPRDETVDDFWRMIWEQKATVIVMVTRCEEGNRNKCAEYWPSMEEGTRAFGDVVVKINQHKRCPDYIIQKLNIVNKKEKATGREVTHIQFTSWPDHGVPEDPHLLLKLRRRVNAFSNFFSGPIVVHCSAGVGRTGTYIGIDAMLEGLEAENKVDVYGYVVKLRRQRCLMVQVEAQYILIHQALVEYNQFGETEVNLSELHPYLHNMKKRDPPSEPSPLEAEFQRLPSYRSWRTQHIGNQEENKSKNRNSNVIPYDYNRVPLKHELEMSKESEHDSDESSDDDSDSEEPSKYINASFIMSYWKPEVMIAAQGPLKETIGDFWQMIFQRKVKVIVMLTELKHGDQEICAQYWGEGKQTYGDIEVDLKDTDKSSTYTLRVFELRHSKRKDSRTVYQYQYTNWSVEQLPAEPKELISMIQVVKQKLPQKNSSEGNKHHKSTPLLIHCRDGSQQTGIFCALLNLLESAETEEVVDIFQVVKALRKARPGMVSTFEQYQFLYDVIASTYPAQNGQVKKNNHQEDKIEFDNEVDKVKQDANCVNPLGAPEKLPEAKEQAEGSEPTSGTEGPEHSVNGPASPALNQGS

LYP [4] = assay: Intracellular LYP inhibition in JTAg cells, anti-pLck; type: cell-based, human; conditions: JTAg cells, TCR stimulated (C305, 2 min); 50 µM of 17 and 34, 25 µM of 39, 1 h
[5] = read-out: IC50 LYP (DiFMUP), substrate DiFMUP 1.5 µM
[6] = read-out: IC50 LYP (peptide 1), substrate peptide 1 10 µM
[7] = read-out: IC50 PEST (peptide 1)
[8] = read-out: IC50 PEST (DiFMUP), substrate DiFMUP 1.5 µM
[9] = read-out: IC50 PEST (peptide 1), substrate peptide 1 10 µM
[10] = read-out: IC50 TCPTP (DiFMUP), substrate DiFMUP 1.5 µM
[11] = read-out: IC50 TCPTP (peptide 2), substrate peptide 2 60 µM
[12] = read-out: IC50 PTP1B (DiFMUP), substrate DiFMUP 1.5 µM
[13] = read-out: IC50 PTP1B (peptide 2), substrate peptide 2 60 µM

| SMILES | LYP versus PTP-PEST inhibition in comparative library screen (LYP [2]) | IC50 (LYP [2]; [5]) [µM] | IC50 (LYP [2]; [6]) [µM] | IC50 (HePTP; substrate DiFMUP) [µM] | IC50 (CD45 [1]; substrate DiFMUP) [µM] | selectivity for LYP over PTP-PEST in dose-response screens (LYP [2]) | IC50 (PTP-PEST; [8]) [µM] | IC50 (PTP-PEST; [9]) [µM] | also measured |
| --- | --- | --- | --- | --- | --- | --- | --- | --- | --- |
| O=S(=O)(O)c1cccc([P+]([Au-][Cl])(c2ccccc2)c2ccccc2)c1 [Compound 12, 3-(Diphenylphosphino)benzenesulfonic acid-Au(I)-Cl] | appear LYP-selective when DiFMUP is used in the assay, but not when the peptide is used | 2 ± 0.1 | 1.9 ± 0.2 |  |  |  |  |  | IC50 (HePTP): 40 ± 1 µM; IC50 (CD45 [1]): > 70 µM; selectivity for LYP over PTP-PEST (LYP [2]; with DiFMUP as substrate): 35 fold; selectivity for LYP over PTP-PEST (LYP [2]; with peptide 1 as substrate): 2 fold; IC50 (PTP-PEST; read-out: IC50 PEST (DiFMUP)): 70 ± 2 µM; IC50 (PTP-PEST; [7]): 4 ± 0.2 µM |
| CP(C)c1ccccc1.[Cl][Au] [Compound 13, Dimethylphenylphosphine-Au(I)-Cl] | more potent inhibitors of LYP than PTP-PEST regardless of the substrate used | 3.5 ± 0.3 | 2 ± 0.3 | > 50 | > 100 | selective for LYP over the ~ 70% identical PTP-PEST | 70 ± 2 | 30 ± 2 |  |
| O=S(=O)(O)c1ccc([P+]([Au-][Cl])(c2ccccc2)c2ccc(S(=O)(=O)O)cc2)cc1 [Compound 18, 4,4′-(Phenylphosphinidene)bis(benzenesulfonic acid)-Au(I)-Cl] |  | 2 ± 0.1 | 0.85 ± 0.05 |  |  | selective for LYP over the ~ 70% identical PTP-PEST |  |  | IC50 (HePTP): 16 ± 2 µM; IC50 (CD45 [1]): 26 ± 1 µM; IC50 (PTP-PEST; read-out: IC50 PEST (DiFMUP)): 39 ± 1 µM; IC50 (PTP-PEST; [7]): 10 ± 2 µM; TCPTP versus PTP1B inhibition in comparative library screen (TCPTP): slightly TCPTP selective with peptide 2; selectivity for TCPTP (over PTP1B) (TCPTP): approximately 2 fold; IC50 (TCPTP; read-out: IC50 TCPTP (DiFMUP)): 16 ± 1 µM; IC50 (TCPTP; read-out: IC50 TCPTP (peptide 2)): 7.5 ± 0.3 µM; selectivity between PTP1B and TCPTP in dose-response screens (PTP1B): no significant selectivity with DiFMUP; IC50 (PTP1B; read-out: IC50 PTP1B (DiFMUP)): 16 ± 1 µM; IC50 (PTP1B; read-out: IC50 PTP1B (peptide 2)): 15 ± 1 µM |
| [Cl][Au][PH](c1ccco1)(c1ccco1)c1ccco1 [Compound 19, Tri-2-furylphosphine-Au(I)-Cl] |  |  |  |  |  |  |  |  | IC50 (TCPTP; [10]): 2.4 ± 0.2 µM; IC50 (TCPTP; [11]): 2.2 ± 0.3 µM; selectivity between PTP1B and TCPTP in dose-response screens (PTP1B; Table 2): selective for PTP1B with both substrates; PTP1B inhibition in library screen, peptide 2 versus DiFMUP (PTP1B): inhibit PTP1B better with peptide 2 than with DiFMUP; IC50 (PTP1B; [12]): 0.33 ± 0.02 µM; IC50 (PTP1B; [13]): 0.2 ± 0.02 µM |
| [Cl][Au][PH](C1CCCCC1)(C1CCCCC1)C1CCCCC1 [Compound 25, Tricyclohexylphosphine-Au(I)-Cl] | appear LYP-selective when DiFMUP is used in the assay, but not when the peptide is used | 25 ± 1 | 61 ± 1 | 20 ± 2 | > 70 |  | 45 ± 1 | > 80 |  |
| N#CCC[P+](CCC#N)([Au-][Cl])c1ccccc1 [Compound 28, Bis(2-cyanoethyl)phenylphosphine-Au(I)-Cl] |  | 3.5 ± 0.1 | 2.5 ± 0.6 | > 50 | > 70 | selective for LYP over the ~ 70% identical PTP-PEST | > 80 | 33 ± 1 |  |
| CCP(CC)CC.[Au+].[Cl-] [Compound 39] | appears LYP selective with peptide 1, but not with DiFMUP | 33 ± 3 | 26 ± 2 | 120 ± 5 | 33 ± 3 | selective for LYP over the ~ 70% identical PTP-PEST | > 150 | 93 ± 9 | phosphorylation of Lck at Y505 (CD45 activity in cells) (CD45 [3]): increase in this band; selectivity for LYP over PTP-PEST (LYP [2]; with peptide 1 as substrate): ~4 fold; phosphorylation of Lck at Y394 (LYP activity in cells) (LYP [4]): increase in phosphorylation at Y394 |
| Fc1c(F)c(F)c([PH]([Au][Cl])(c2c(F)c(F)c(F)c(F)c2F)c2c(F)c(F)c(F)c(F)c2F)c(F)c1F [Compound 40] |  |  |  |  |  |  |  |  | IC50 (TCPTP; [10]): 6.7 ± 0.2 µM; IC50 (TCPTP; [11]): 57 ± 1 µM; selectivity between PTP1B and TCPTP in dose-response screens (PTP1B; Table 2): no significant selectivity with DiFMUP; PTP1B inhibition in library screen, peptide 2 versus DiFMUP (PTP1B): the reverse seems to be true; IC50 (PTP1B; [12]): 7.5 ± 0.2 µM; IC50 (PTP1B; [13]): 5.4 ± 0.3 µM; selectivity for PTP1B (over TCPTP) (PTP1B; with peptide 2 as substrate): ~10 fold |
